Laboratory results as given in patent publication US6596754B1, “Preventives/remedies for multiple organ failure” (Daiichi Pharmaceuticals Co., Ltd., priority 1998, dated 2003).

Tests used:
Type in all cases: in vivo, Rats (Slc: Wistar)
[1] = tested on: liver function parameters (GOT, GPT, LDH, and T-BIL); experiment: Liver disease: liver function parameters (GOT, GPT, LDH, T-BIL) after LPS administration; settings: six hours after LPS; for TBIL / GOT / GPT / LDH: rats, LPS 20 mg/kg i.v., Mean ± S.E. (n = 7); for TBIL: control 0.46 ± 0.15; for GOT: control 3404 ± 406; for GPT: control 3716 ± 496; for LDH: control 23847 ± 3225
Protocol: Rats (Slc: Wistar, male, 10 weeks old, n=7) were anesthetized by halothane. Subsequently, LPS (E. coli, 055: B5) (20 mg/2 ml/kg) was administered to each rat through the femoral vein. Immediately after administration, compound A was subcutaneously administered to each rat at a dose of 0.3, 1, or 3 mg/kg. Six hours after LPS administration, blood was collected from the abdominal aorta in the presence of citric acid, and the blood was collected to measurement of liver function parameters (GOT, GPT, LDH, and T-BIL).

[2] = tested on: LPS intravenous administration shock model; experiment: LPS intravenous administration shock model, mortality; settings: for Mortality in terms of percentage(%) / Mortality: rats, LPS 20 mg/kg i.v., 24 hours after LPS; for Mortality in terms of percentage(%): control 100%; for Mortality: dead/total
Protocol: Rats (Slc: Wistar, male, 10 weeks old, n=15) were anesthetized by halothane. Subsequently, lipopolysaccharide (LPS) (E. coli, 055: B5) (20 mg/2 ml/kg) was administered to each rat through the femoral vein. Immediately after administration, (2S)-2-[4-([(3S)-1-acetimidoyl-3-pyrrolidinyl]oxy)phenyl]-3-(7-amidino-2-naphthyl)propionic acid hydrochloride pentahydrate (hereinafter referred to as “Compound A”) was subcutaneously administered to each rat at a dose of 0.3, 1, or 3 mg/kg. The mortality for the rats was observed 24 hours after the administration of LPS.

[3] = tested on: IL-6; experiment: Hypercytokinemia: plasma IL-6 by ELISA after LPS administration; settings: rats, LPS 20 mg/kg i.v.; 1 or 3 mg/kg s.c.; six hours after LPS; FIG. 1; #p <0.1
Protocol: Rats (Slc: Wistar, male, 10 weeks old, n=7) were anesthetized by halothane. Subsequently, LPS (E. coli, 055: B5) (20 mg/2 ml/kg) was administered to each rat through the femoral vein. Immediately after administration, compound A was subcutaneously administered to each rats at a dose of 1 or 3 mg/kg. Six hours after administration of LPS, blood was collected from the abdominal aorta in the presence of citric acid, and plasma IL-6 was measured by ELISA.

`CC(=N)N1CC[C@H](Oc2ccc([C@H](Cc3ccc4ccc(C(=N)N)cc4c3)C(=O)O)cc2)C1.Cl.O.O.O.O.O` [Compound A, (2S)-2-[4-([(3S)-1-acetimidoyl-3-pyrrolidinyl]oxy)phenyl]-3-(7-amidino-2-naphthyl)propionic acid hydrochloride pentahydrate] was tested, and the “Effect on liver function parameters (in words)” value ([1]; 0.3, 1, 3 mg/kg s.c.) was “dose-dependently suppressed the increase in each liver function parameter”, the TBIL ([1]; 0.3 mg/kg s.c.) was 0.48 ± 0.22 mg/dL and the GOT ([1]; 0.3 mg/kg s.c.) was 1939 ± 442 IU/L. It also gave a GPT ([1]; 0.3 mg/kg s.c.) of 1986 ± 467 IU/L, an LDH ([1]; 0.3 mg/kg s.c.) of 11560 ± 2983 IU/L and a TBIL ([1]; 1 mg/kg s.c.) of 0.20 ± 0.10 mg/dL. It also gave a GOT ([1]; 1 mg/kg s.c.) of 1183 ± 281 IU/L, a GPT ([1]; 1 mg/kg s.c.) of 1216 ± 352 IU/L and an LDH ([1]; 1 mg/kg s.c.) of 6297 ± 2291 IU/L. For the same molecule, the TBIL ([1]; 3 mg/kg s.c.) was 0.10 ± 0.01 mg/dL, the GOT ([1]; 3 mg/kg s.c.) was 364 ± 42 IU/L and the GPT ([1]; 3 mg/kg s.c.) was 189 ± 22 IU/L. For the same molecule, the LDH ([1]; 3 mg/kg s.c.) was 972 ± 186 IU/L, the “Effect on mortality for rats (in words)” value ([2]; 0.3, 1, 3 mg/kg s.c., χ2 test p<0.001) was “dose-dependently decreases the mortality for rats” and the “Mortality in terms of percentage(%)” value ([2]; 0.3 mg/kg s.c.) was 80%. The Mortality ([2]; 0.3 mg/kg s.c.) was 12/15, the “Mortality in terms of percentage(%)” value ([2]; 1 mg/kg s.c.) was 40% and the Mortality ([2]; 1 mg/kg s.c.) was 6/15. For the same molecule, the “Mortality in terms of percentage(%)” value ([2]; 3 mg/kg s.c.) was 7%, the Mortality ([2]; 3 mg/kg s.c.) was 1/15 and the “Concentration of plasma IL-6 (in words)” value [3] was “dose-dependently suppressed the increase in concentration of IL-6”.
